# Literature values, collected in patent US20210361700A1 (priority 2020, published 2021).
# Entries after “also recorded” stand apart in the source; their conditions may differ. Like-named read-outs stand apart in the source and are kept apart here.
# What was measured:
# [1] = tested on: upper respiratory infection
# [2] = tested on: acute respiratory infections; conditions: N=40; P=0.004; listed as quercetin
# [3] = target: COVID-19 S-protein (Severe acute respiratory syndrome coronavirus 2, UniProt P0DTC2)
# [4] = tested on: SARS-CoV ACE2 receptor; conditions: studies with SARS-CoV; listed as quercetin
# [5] = target: 3CLpro of SARS-CoV (Severe acute respiratory syndrome coronavirus, UniProt P0C6X7)
# [6] = target: 3CLpro of MERS (Middle East respiratory syndrome-related coronavirus, UniProt K9N7C7)
# [7] = target: Plpro protease of SARS-CoV (Severe acute respiratory syndrome coronavirus, UniProt P0C6X7)
# [8] = tested on: 3C-like protease (3CLpro) activity of COVID-19
# [9] = tested on: influenza; conditions: animal models of influenza
# [10] = tested on: rhinovirus; conditions: rhinovirus infection in mice (COPD)
# [11] = tested on: endothelial cells
# [12] = tested on: respiratory syndrome virus-1 vaccine; conditions: large mammal model
# [13] = tested on: common cold (often caused by coronaviruses); conditions: short-term zinc supplementation at onset of symptoms; 17 RCTs pooled; 95% CI 0.81 to 2.50; listed as zinc
# [14] = tested on: acute respiratory infections; conditions: for lower respiratory infection: zinc supplementation, older adults
# [15] = target: RNA-dependent RNA polymerase of SARS-CoV (Severe acute respiratory syndrome coronavirus, UniProt P0C6X7)
# [16] = tested on: T cell function; conditions: for T cell function in older adults: supplementation
# [17] = tested on: hepatitis B and tetanus vaccines; conditions: for antibody titer / antibody response to vaccines: in vivo
# [18] = tested on: inflammation
# [19] = tested on: colds or influenza
# [20] = tested on: influenza, adenovirus, Ebola, and others; conditions: high affinity, nonspecific binding to viral surface proteins
# [21] = tested on: pro-inflammatory cytokines, such as TNF-α, IL-6 and IL-8; conditions: acute viral respiratory infection
# [22] = tested on: TLR4 and NF-κB protein levels, ROS, acute tissue injury; conditions: models of lung injury
# [23] = tested on: influenza vaccine; conditions: experimental models, including influenza vaccine
# [24] = tested on: acute respiratory infections; conditions: for colds: secondary analysis, older adults
# [25] = tested on: influenza
# [26] = tested on: vascular endothelial function; conditions: meta-analyses of randomized controlled trials
# [27] = tested on: strep pneumonia; conditions: old mice; by reducing neutrophil migration and inflammatory cytokines
# [28] = subset of subjects 40+ years (N=325), secondary analysis
# 3CLpro of MERS, sequence (K9N7C7 3248-3553 limits assumed): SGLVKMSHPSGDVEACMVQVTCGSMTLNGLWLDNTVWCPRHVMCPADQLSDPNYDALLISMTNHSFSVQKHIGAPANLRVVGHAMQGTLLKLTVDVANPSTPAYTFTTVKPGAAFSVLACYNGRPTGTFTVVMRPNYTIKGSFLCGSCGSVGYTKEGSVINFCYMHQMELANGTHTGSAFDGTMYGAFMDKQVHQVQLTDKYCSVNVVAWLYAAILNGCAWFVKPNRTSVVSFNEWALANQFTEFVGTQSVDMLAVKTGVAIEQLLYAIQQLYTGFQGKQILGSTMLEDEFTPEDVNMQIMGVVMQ
compound,measurement,setting,value
"O=c1c(O)c(-c2ccc(O)c(O)c2)oc2cc(O)cc(O)c12 [Quercetin, quercetin]",effect on rates of upper respiratory infections,"[1]; overall, N=1,002",no overall significant effect
same,reduced duration of upper respiratory infection (total sick days),[1]; [28],(−31%) in a secondary analysis
same,reduced severity of upper respiratory infection (symptom severity),[1]; [28],severity (−36%) and total sick days
same,incidence of acute respiratory infections,[2],significantly reduced
same,"antagonist of S-protein binding to host ACE2 receptor, computer modeling",[3],other compounds as a top
same,"antagonist of S-protein binding to host ACE2 receptor, computer modeling",[3]; listed as quercetin,top potential antagonist
same,binding to ACE2 receptor / antagonism of S-protein binding,[4],binds
same,inhibition of 3CLpro of SARS-CoV,[5],inhibits
same,inhibition of 3CLpro of MERS,[6],inhibits
same,inhibition of Plpro protease of SARS-CoV,[7],inhibits
same,inhibition of 3CLpro activity of COVID-19,[8],Inhibits the 3C-like protease
same,"superoxide radical formation, lung pathology, overall risk of infection induced by influenza",[9],Reduces superoxide
same,viral replication and risk of acute infection,[9],inhibits
same,cytokine storm / inflammation and lung injury,[10],inhibits cytokine storm and reduces lung injury
same,effects in vitro on endothelial cell pathways,[11]; in vitro,several beneficial effects
same,response to respiratory syndrome virus-1 vaccine,[12],improves
zinc,reduced days of illness,[13],-1.65 days
same,acute respiratory infections in the elderly,"[14]; double-blind, placebo controlled trial",reduced
same,lower respiratory infection,[14],adults and reduces lower
same,lower respiratory infection,[14]; listed as zinc,reduces
same,inhibition of RNA-dependent RNA polymerase,[15],Inhibits the RNA-dependent
same,T cell function in older adults,[16],Increases T cell function in older
same,T cell function in older adults,[16]; listed as zinc,increases
same,antibody titer / antibody response to vaccines,[17],increase; also recorded: restores
same,inflammation,[18],Reduces inflammation.
"O=C(O[C@@H]1Cc2c(O)cc(O)cc2O[C@@H]1c1cc(O)c(O)c(O)c1)c1cc(O)c(O)c(O)c1 [EGCG, epigallocatechin gallate]","OR, clinically diagnosed influenza infection",[19]; 95% CI=0.07-0.76,0.25
same,"HR, days free from influenza infection",[19]; 95% CI=0.09-0.84,0.27
same,reduced clinically diagnosed influenza infection,[19]; in vivo,75%
same,reduced days free from influenza infection,[19]; in vivo,73%
same,inhibition of 3CLpro of SARS-CoV,[5],Inhibits the (3CL^pro) activity
same,infectivity of a wide range of viruses,[20],Inhibits infectivity of a wide
same,pro-inflammatory cytokines,[21],down-regulates; also recorded: Down-regulatcs pro-
same,"TLR4 and NF-κB protein levels, ROS, acute tissue injury",[22],Suppresses inflammatory
same,biomarkers of endothelial dysfunction such as ICAM-1 and VCAM-1,[11],lowers
same,endothelin-1 production,[11]; endothelial cells,reduces
same,nitric oxide (NO) release,[11]; endothelial cells,induces
same,excessive endothelial oxidative stress,[11]; through effects on the Nrf2/HO-1 pathway,reduces
same,immune response to vaccination,[23],potentiated
Vitamin E,risk of total acute respiratory infections,[24]; nursing home residents,reduced the risk
same,colds,[24],Decreased colds in older adults
same,colds,[24]; listed as vitamin E,reduced the risk
same,pneumonia,[24]; subset of nursing home residents with polymorphism,Decreased pneumonia in a subset
same,cell-dividing and IL-producing capacities of naive T cells,"[16]; naive T cells, but not memory T cells",increased
same,T cell function in older adults,[16],increases
same,survival in viral pneumonia,"[25]; mouse, in vivo",increases survival
same,viral load in viral lung infections,"[25]; mouse, in vivo",Reduces viral load in viral
same,excessive lung inflammatory responses / inflammatory cytokine production,"[25]; viral infection, influenza",dampens; also recorded: Reduces inflammatory
same,vascular endothelial function,[26],improve
same,in vivo delayed-type hypersensitivity skin response,[17],improves
same,antibody titer / antibody response to vaccines,[17],increase; also recorded: improves
same,survival from strep pneumonia infection,[27],Increases survival from
